What all share (format): cell-based
For assay [1], the target named is T1, NLRP3 (Homo sapiens, UniProt Q96P20).
T1 construct: host or cells: THP-1 cells, PMA-differentiated
Nature of the assay: Measurement of IL-1β production in PMA-differentiated THP-1 cells (NLRP3 hIL1B). To be noted: one or more of the described procedures. As for the experimental part:
Measurement of IL-1β Production in PMA-Differentiated THP-1 Cells
THP-1 cells were purchased from the American Type Culture Collection and sub-cultured according to instructions from the supplier. Prior to experiments, cells were cultured in RPMI 1640 containing 10% heat inactivated FBS, penicillin (100 units/ml) and streptomycin (100 μg/ml), and maintained in log phase prior to experimental setup. Prior to the experiment THP-1 were treated with PMA (Phorbol 12-myristate 13-acetate) (10 μg/ml) for 24 hours. The day of the experiment the media was removed and attaching cells were treated with trypsin for 2 minutes, cells were then collected, washed with PBS (phosphate buffer saline), spin down, resuspended in 2% heat inactivated FBS with RPMI at a concentration of 1×10^6 cells/ml, and 100 μl was plated in a 96 well plate. Compounds were dissolved in dimethyl sulfoxide (DMSO) and added to the culture medium to achieve desired concentration (e.g. 100, 30, 10, 3, 1, 0.3 or 0.1 μM). Cells were incubated with compounds for 4 hours. Cell free supernatant was collected and the production of IL-1β was evaluated by ELISA. A vehicle only control was run concurrently with each experiment. Final DMSO concentration was 1%.
Measurement of IL-1β Production in PMA-Differentiated THP-1 Cells (Alternative Procedure)
THP-1 cells were purchased from the American Type Culture Collection and sub-cultured according to instructions from the supplier. Prior to experiments, cells were cultured in RPMI 1640 containing 10% heat inactivated FBS, penicillin (100 units/ml), streptomycin (100 μg/ml), HEPES (10 mM) and sodium pyruvate (1 mM) and maintained in log phase prior to experimental setup. Prior to the experiment, THP-1 cells were treated with PMA (Phorbol 12-myristate 13-acetate) (20 μg/ml) overnight. The day of the experiment, the media was removed and attached cells were treated with trypsin for 2 minutes, cells were then collected, washed with PBS (phosphate buffer saline), pelleted by centrifugation and resuspended in 2% heat inactivated FBS with RPMI at a concentration of 50,000 cells/well in a 384 well plate. Cell free supernatant was collected and the production of IL-1β was evaluated by ELISA. Compounds were dissolved in dimethyl sulfoxide (DMSO) and added to the culture medium to achieve desired concentration (e.g. 100, 30, 10, 3, 1, 0.3 or 0.1 μM). Cells were incubated with compounds for 2 hours. A vehicle only control was run concurrently with each experiment. Final DMSO concentration was 1%.
Measurement of IL-1β Production—hTRF Protocol (Second Alternative Procedure)
Serial dilutions of compounds in DMSO were added to low volume 384 well plates at 100 nl/well using an ECHO 550 acoustic dispenser (Labcyte) to achieve final starting concentration of 10 μM in assay.
THP-1 cells in RPMI (Gibco, 11875) media with 10% FBS at a density of 1×10^6 cell/ml in a T175 flask were treated with a final concentration of phorbol 12-myristate 13-acetate (PMA) (Sigma, PI585) of 50 ng/ml overnight at 37° C. at 5% CO2 for differentiation. Cells were harvested the next day after rinsing well wth dPBS using 0.5% trypsin. A cell solution was prepared of 1×10^6 cells/ml for 50,000 cells in 50 μl/well in RPMI media with 2% FBS. Cells were plated using a multichannel pipette onto the compound dilutions in Greiner, 384 well, black clear bottom tissue culture treated plates (781090). The plates were incubated in 37° C. incubator at 5% CO2 for 2 hours.
After the 2 hour incubation, the cell plates were spun in the centrifuge for 5 minutes at 1200 rpm. Using the Felix (CyBio), 8 μl of the supernatant was transferred to 384 well, low volume, white proxy plates. (Perkin Elmer, 6008230). A human ILlbeta hTRF kit was used to analyze the supernatant (CISBIO, 62HIL1BPEG). The kit instructions were followed for preparing the IL1Beta standard curve and then the antibodies from the kit were diluted 1:40 rather than 1:20 as kit instructed. […]

The target in assay [2] is T2, human TLR8 (Homo sapiens, UniProt Q9NR97).
T2 construct: host or cells: human HEK-Blue cells
T2 sequence (Q9NR97 27-1041): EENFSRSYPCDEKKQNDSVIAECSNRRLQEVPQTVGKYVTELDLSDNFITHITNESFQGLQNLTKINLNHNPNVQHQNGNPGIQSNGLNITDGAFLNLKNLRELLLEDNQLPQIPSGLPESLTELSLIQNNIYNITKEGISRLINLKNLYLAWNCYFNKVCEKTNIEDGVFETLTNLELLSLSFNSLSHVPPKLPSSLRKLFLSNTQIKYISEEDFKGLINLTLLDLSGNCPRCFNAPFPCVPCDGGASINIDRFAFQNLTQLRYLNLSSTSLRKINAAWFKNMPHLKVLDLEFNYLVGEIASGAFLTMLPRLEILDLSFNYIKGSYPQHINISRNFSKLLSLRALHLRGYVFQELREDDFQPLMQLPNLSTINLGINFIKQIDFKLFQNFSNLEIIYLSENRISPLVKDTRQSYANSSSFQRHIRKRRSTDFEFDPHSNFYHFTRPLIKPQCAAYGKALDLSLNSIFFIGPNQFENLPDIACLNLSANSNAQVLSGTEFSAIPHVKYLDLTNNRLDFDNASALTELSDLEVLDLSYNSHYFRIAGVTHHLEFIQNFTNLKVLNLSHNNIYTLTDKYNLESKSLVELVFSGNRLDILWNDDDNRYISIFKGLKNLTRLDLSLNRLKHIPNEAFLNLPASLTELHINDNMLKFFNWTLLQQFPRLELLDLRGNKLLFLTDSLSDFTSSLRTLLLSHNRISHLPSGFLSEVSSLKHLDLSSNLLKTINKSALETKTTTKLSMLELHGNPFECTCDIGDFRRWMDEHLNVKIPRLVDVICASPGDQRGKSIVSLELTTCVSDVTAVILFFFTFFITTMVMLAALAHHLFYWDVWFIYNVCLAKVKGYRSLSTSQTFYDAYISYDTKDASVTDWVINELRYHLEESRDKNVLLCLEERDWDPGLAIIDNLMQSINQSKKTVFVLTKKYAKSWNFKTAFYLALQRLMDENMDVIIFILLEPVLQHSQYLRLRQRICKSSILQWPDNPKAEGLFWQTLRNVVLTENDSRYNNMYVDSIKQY
Nature of the assay: In vitro human TLR8 reporter assay (HEK-Blue, NF-kB/AP1-inducible SEAP). To be noted: HEK-Blue cells co-expressing TLR8 and SEAP reporter, 18 h; read-out: TLR8 agonist EC50. The method, then: (§1) In Vitro Human TLR7 and TLR8 Binding Reporter Assays
(§2) Logarithmically-growing human HEK-Blue cells co-expressing a TLR7 or TLR8 gene and a NF-kB/AP1-inducible SEAP (secreted embryonic alkaline phosphatase; Invivogen, San Diego, CA) reporter gene are added to individual wells of a 384-well plate (15,000 cells per 20 μL per well) and maintained for 24 h at 37° C. 5% CO2. Test compounds or DMSO are distributed to separate wells the next day using acoustic liquid handling technology (100 nL per well) and cells are subsequently incubated for 18 h at 37° C. 5% CO2. Cellular SEAP production is measured using an Envision plate reader instrument thirty minutes after adding freshly-made Quanti-Blue reagent (prepared by following manufacturer instructions; Invivogen, San Diego, CA) to the HEK-Blue TLR Nf-kB-SEAP cell reactions. All EC50 values (half-maximal effective concentration) are determined using proprietary data analysis software. Normalized EC50 value=absolute value determined by setting 100% Ymax using a reference standard RLU (relative light unit) values from cells treated with 50 μM of the reference standard.
For orientation: Reporter assays use an easily measured gene product as a stand-in for the process of interest.

Assay [3] deals with T3, human TLR7 (Homo sapiens, UniProt Q9NYK1).
T3 construct: host or cells: human HEK-Blue cells
T3 sequence (Q9NYK1 27-1049): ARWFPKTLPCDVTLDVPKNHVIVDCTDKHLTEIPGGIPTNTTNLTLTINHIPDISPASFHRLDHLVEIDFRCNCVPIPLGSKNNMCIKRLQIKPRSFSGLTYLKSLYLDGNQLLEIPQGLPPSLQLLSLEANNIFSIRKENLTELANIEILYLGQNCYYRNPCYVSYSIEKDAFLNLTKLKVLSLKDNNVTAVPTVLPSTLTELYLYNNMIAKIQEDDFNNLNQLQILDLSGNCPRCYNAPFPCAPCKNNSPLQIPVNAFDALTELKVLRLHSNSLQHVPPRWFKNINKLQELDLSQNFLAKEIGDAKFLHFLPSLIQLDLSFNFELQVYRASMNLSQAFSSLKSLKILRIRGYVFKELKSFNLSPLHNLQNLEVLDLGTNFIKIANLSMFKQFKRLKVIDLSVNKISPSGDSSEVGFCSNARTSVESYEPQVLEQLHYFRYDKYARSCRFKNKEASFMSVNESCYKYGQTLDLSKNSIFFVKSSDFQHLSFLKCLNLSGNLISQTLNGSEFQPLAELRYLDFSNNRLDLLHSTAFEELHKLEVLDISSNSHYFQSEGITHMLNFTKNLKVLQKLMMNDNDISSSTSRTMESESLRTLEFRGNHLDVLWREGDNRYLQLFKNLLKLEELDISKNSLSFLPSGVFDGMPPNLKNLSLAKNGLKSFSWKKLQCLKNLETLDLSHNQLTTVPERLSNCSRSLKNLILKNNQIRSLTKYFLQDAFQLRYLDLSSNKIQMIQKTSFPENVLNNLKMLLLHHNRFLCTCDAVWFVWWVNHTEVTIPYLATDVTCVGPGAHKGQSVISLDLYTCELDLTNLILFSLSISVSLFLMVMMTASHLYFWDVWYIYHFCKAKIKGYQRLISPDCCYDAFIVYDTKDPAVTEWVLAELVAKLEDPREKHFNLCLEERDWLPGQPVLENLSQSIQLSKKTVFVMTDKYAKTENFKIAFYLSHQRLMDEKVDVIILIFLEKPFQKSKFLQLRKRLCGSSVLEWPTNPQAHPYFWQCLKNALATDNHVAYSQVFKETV
Nature of the assay: In vitro human TLR7 reporter assay (HEK-Blue, NF-kB/AP1-inducible SEAP). To be noted: HEK-Blue cells co-expressing TLR7 and SEAP reporter, 18 h; read-out: TLR7 agonist EC50. As for the experimental part: as §1, §2

T1 sequence (Q96P20 whole entry): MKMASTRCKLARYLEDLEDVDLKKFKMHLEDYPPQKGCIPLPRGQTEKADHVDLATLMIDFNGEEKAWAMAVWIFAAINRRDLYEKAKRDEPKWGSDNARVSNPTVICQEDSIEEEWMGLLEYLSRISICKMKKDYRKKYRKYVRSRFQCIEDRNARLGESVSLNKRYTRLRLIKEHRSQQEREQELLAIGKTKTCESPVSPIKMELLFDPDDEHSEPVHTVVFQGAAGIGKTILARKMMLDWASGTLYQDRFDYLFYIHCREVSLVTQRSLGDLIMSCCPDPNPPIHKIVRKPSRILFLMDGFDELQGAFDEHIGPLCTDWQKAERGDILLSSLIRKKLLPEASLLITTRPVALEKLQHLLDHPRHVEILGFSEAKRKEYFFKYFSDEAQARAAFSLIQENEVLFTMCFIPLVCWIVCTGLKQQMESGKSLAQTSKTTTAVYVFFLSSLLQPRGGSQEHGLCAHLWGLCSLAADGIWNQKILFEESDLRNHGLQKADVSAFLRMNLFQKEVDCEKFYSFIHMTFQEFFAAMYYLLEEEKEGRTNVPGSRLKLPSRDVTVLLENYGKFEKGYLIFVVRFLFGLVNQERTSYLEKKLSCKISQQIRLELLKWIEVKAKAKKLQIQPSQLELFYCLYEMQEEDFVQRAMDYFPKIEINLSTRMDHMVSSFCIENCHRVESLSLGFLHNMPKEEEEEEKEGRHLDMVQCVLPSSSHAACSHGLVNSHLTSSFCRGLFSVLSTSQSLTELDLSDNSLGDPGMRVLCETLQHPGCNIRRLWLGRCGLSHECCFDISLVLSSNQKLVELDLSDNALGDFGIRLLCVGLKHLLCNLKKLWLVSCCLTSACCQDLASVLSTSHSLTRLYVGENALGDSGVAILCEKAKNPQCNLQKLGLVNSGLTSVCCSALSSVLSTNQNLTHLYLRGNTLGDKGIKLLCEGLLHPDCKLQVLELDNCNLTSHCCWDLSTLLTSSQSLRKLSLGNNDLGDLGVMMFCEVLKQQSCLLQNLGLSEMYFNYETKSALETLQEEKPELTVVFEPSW

For orientation: IC50 means the concentration that inhibits the measured activity by half. Low values mean inhibition by little substance, high ones a need for much substance. In turn, `Nc1nc2cc(-c3cc[nH]n3)ccc2c2c1nc(CCNC(=O)c1ccc(F)cn1)n2C1CCC1` [Example 1, N-{2-[4-amino-1-cyclobutyl-7-(1H-pyrazol-5-yl)-1H-imidazo[4,5-c]quinolin-2-yl]ethyl}-5-fluoropyridine-2-carboxamide] had a 50% inhibitory concentration (IC50) in assay [1] of 0.12 µM. In other words, the sub-micromolar range. Consider `CC(C)n1c(CCNC(=O)c2ccccn2)nc2c(N)nc3cc(-c4cc[nH]n4)ccc3c21` [Example 2], for which, in assay [1], the concentration for half-maximal inhibition (IC50) is 0.07 µM. On the same count and under the same terms, with `Nc1nc2cc(-c3cc[nH]n3)ccc2c2c1nc(CCNC(=O)c1ccccn1)n2CC(F)F` [Example 3] the figure was 0.22 µM; with `Nc1nc2cc(-c3cc[nH]n3)ccc2c2c1nc(CCNC(=O)c1ccc(F)cn1)n2CC(F)F` [Example 4], 0.34 µM; with `Nc1nc2cc(-c3cc[nH]n3)ccc2c2c1nc(CCNC(=O)c1ccccn1)n2C1CC1` [Example 5], 0.44 µM. The same measure, in the same setting: next, `Nc1nc2cc(-c3cc[nH]n3)ccc2c2c1nc(CCNC(=O)c1ccccn1)n2C1CCC1` [Example 6]: 0.41 µM; `COc1ccc(C(=O)NCCc2nc3c(N)nc4cc(-c5cc[nH]n5)ccc4c3n2C2CCC2)nc1` [Example 7]: 0.18 µM; `Nc1nc2cc(-c3cc[nH]n3)ccc2c2c1nc(CCNC(=O)c1ccc(F)cn1)n2C1CC1` [Example 8]: 0.27 µM. `CC(C)n1c(CCNC(=O)c2ccc(F)cn2)nc2c(N)nc3cc(-c4cc[nH]n4)ccc3c21` [Example 9] came in with a 50% inhibitory concentration (IC50) in assay [1] of 0.12 µM. Against the preceding molecule, the IC50 is about 2.3-fold lower. Same read-out and setting: with `CC(C)n1c(CCNC(=O)c2csc(Cl)n2)nc2c(N)nc3cc(-c4cc[nH]n4)ccc3c21` [Example 10] the figure was 0.16 µM; with `Nc1nc2cc(-c3cc[nH]n3)ccc2c2c1nc(CCNC(=O)c1csc(Cl)n1)n2CC(F)F` [Example 11], 0.59 µM; with `COc1ccc(C(=O)NCCc2nc3c(N)nc4cc(-c5cc[nH]n5)ccc4c3n2C(C)C)nc1` [Example 12], 0.27 µM. Still for that read-out and setting: with `COc1ccc(C(=O)NCCc2nc3c(N)nc4cc(-c5cc[nH]n5)ccc4c3n2C2CC2)nc1` [Example 13] the figure was 1.24 µM.

A word on the EC50: it is the concentration giving half of the maximal effect. The molecule `CC(C)n1c(CNC(=O)c2ccccn2)nc2c(N)nc3cc(-c4cc[nH]n4)ccc3c21` [Example 14] returned an IC50 in assay [1] of 0.24 µM. In assay [2], the EC50 was in the range of 20 to 100 µM. `CC(C)n1c(CNC(=O)C2CCCCO2)nc2c(N)nc3cc(-c4cc[nH]n4)ccc3c21` (centres unmarked) [Example 15] gave a 50% inhibitory concentration (IC50) in assay [1] of 0.27 µM. That is a sub-micromolar value. On the same count and under the same terms, with `CC(C)n1c(CNC(=O)C2CCCO2)nc2c(N)nc3cc(-c4cc[nH]n4)ccc3c21` (centres unmarked) [Example 16] the figure was 0.22 µM.

`Nc1nc2cc(-c3cc[nH]n3)ccc2c2c1nc(CCNC(=O)C1CCCCO1)n2CC(F)F` (centres unmarked) [Example 17] gave an IC50 in assay [1] of 1.32 µM.

`CC(C)n1c(CCNC(=O)C2CCCO2)nc2c(N)nc3cc(-c4cc[nH]n4)ccc3c21` (centres unmarked) [Example 18] showed an IC50 in assay [1] of 1.94 µM. In assay [1], `Nc1nc2cc(-c3cc[nH]n3)ccc2c2c1nc(CNC(=O)C1CCCCO1)n2CC(F)F` (centres unmarked) [Example 19] displayed an IC50 of 0.79 µM. Also, the 50% effective concentration (EC50) in assay [3] and in assay [2] was 20 to 100 µM throughout. As for `Nc1nc2cc(-c3cc[nH]n3)ccc2c2c1nc(CNC(=O)C1CCCO1)n2CC(F)F` (centres unmarked) [Example 20], in assay [1], 1.88 µM corresponded to half-maximal inhibition (IC50).

For the origin of these results see patent US12024513B2, “NLRP3 modulators” (INNATE TUMOR IMMUNITY, INC., priority 2018, dated 2024).
